Experimental data reported in US7329644B2, “Preparation and use of cyclic and branched peptides and their labelled derivatives as therapeutic agents, cholecystokinin agonists or antagonists, and diagnostic agents to identify and locate tumours” (Bracco Imaging S.p.A., priority 2001, dated 2008).
pKd: −log10 of the molar value. Read-outs that look alike come from different tables or passages of the source. Where a SMILES comes first, the peptide text is derived from it. Bridges are numbered along the chain shown (N, C = ends). [ ]: non-standard residue; d: D form. Dap = NC[C@H](N)C(=O)O

Legend:
[1] = target: T1, fragment 1-47 of type A cholecystokinin receptor, CCKA-R(1-47) (Homo sapiens, UniProt P32238); test: Fluorescence spectroscopy binding to receptor fragment CCKA-R(1-47)
T1 construct: Fragment 1-47 of type A receptor, CCKA-R(1-47), and the compound of formula (IV), both synthesised by solid-phase peptide synthesis methods, were used; made in house; host or cells: chemical solid-phase peptide synthesis (no expression host)
T1 sequence (P32238 1-47): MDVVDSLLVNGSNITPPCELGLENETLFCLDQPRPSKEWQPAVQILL
Description: The binding between the compound prepared as described in example 1 and fragment 1-47 of type A cholecystokinin receptor was studied with fluorescence spectroscopy. Although the compound of formula (IV), as it has no sulphate functions on the tyrosine residue, should have greater affinity for type B cholecystokinin receptor, the experiment performed and the results obtained are entirely legitimate, because the receptor fragment used contains no residues (Arg 197) which are known to be responsible for interaction with the sulphate group.
Fragment 1-47 of type A receptor, CCKA-R(1-47), and the compound of formula (IV), both synthesised by solid-phase peptide synthesis methods, were used. Reference should be made to example 1 for the synthesis of compound (IV); for the synthesis of the receptor fragment, see R. Ragone, 47-53, 56, 2001, Biopolymers).
The interaction between receptor fragment CCKA-R(1-47) and compound (IV) was observed by monitoring the tryptophan fluorescence. The emission spectra were recorded at room temperature using a Jasco FP-750 spectrofluorimeter at the excitation wavelength of 296 nm to excite the tryptophan selectively. Small aliquots of a concentrated solution of compound (IV) dissolved in phosphate buffer at pH 7.2 were added to a fixed volume of a solution of CCKA-R(1-47) dissolved in the same solvent, in the presence of a 10 mM solution of sodium dodecylsulphate micelles, used to mimic the cell membrane. […]
Increasing quantities of compound of formula (IV) were added from a concentrated master solution containing 10 mM SDS micelles.
As will be seen in FIG. 2, which exemplifies a typical saturation curve, the fluorescence signal is gradually quenched as a result of the binding. The experiments were performed at various receptor concentrations, and fluorescence quenching was always observed. […] To distinguish the modifications in fluorescence caused by the binding, the contributions to fluorescence of the receptor and peptide isolated were subtracted, and a small variation in fluorescence compared with the value measured was obtained.

[2] = system: type A cholecystokinin receptor; test: Intracellular calcium response in myenteric neurones (confocal microscopy); format: cell-based; conditions: perfusion for 60 seconds
Description: Biological tests have been carried out to confirm the activity of the cyclic compound of formula (IV), using neurone cells which express type A cholecystokinin receptor. […] Both these compounds should show a lower level of activity than the corresponding analogs containing the sulphate group on the tyrosine residue. The biological activity tests involved the use of myenteric neurones as receptor-expressing cells, and the use of a confocal microscope with a suitable software package to measure peptide activity. The tests were based on the following assumptions: • 1) myenteric neurones (of the intestinal wall) normally express type A CCK receptor • 2) binding between CCK and the receptor induces excitation of the cell (change in membrane potential), which can be recorded with electrophysiology studies • 3) the cell excitation is coupled to the passage of calcium from the outside to the inside of the cell through specific membrane channels • 4) if the calcium is rendered fluorescent (using calcium chelators which modify the emission wavelength if they are excited at a particular wavelength), the increased concentration of the intracellular calcium in response to a stimulus can be recorded • 5) confocal laser microscopy with the aid of specific software therefore enables these phenomena to be recorded, and the fluorescence to be converted into the intracellular calcium concentration.

| pKd ([1]; experiments at various receptor concentrations, read-out: Kd range estimated by fitting procedures) | pKd ([1]; experiments at various receptor concentrations, standard deviation ±27 nM, read-out: Kd mean) | pKd ([1]; receptor concentration 2.6 μM, 10 mM phosphate buffer pH 7.2, 10 mM SDS micelles, fluorescence at 335 nm, read-out: Kd (binding curve of FIG. 2)) | Compound | intracellular calcium concentration [2] |
| --- | --- | --- | --- | --- |
| 6.70 to 7.30 | 6.92 | 6.59 | CSCC[C@@H]1NC(=O)[C@H](Cc2c[nH]c3ccccc23)NC(=O)[C@@H](NC(=O)[C@H](CCSC)NC(=O)[C@H](Cc2ccc(O)cc2)NC(=O)[C@@H](N)CC(=O)O)CNC(=O)[C@H](CCCCN)NC(=O)[C@H](Cc2ccccc2)NC(=O)[C@H](CC(=O)O)NC1=O [(IV)] (H-DYM[Dap]WMDFK; lactam 4-C) | – |
| – | – | – | Asp-Tyr-Met-Gly-Trp-Met-Asp-Phe-amide [CCK8] | induce an increase in the intracellular calcium concentration |
